# Experimental data from US9127291B2, “Methods and products for biasing cellular development” (University of Central Florida Research Foundation, Inc., priority 2004, dated 2015).
# “Also recorded” adds a separate entry of the source.
# B1: Lhx8: mouse cDNA clone for Lhx8 (SEQ ID NO: 7) inserted into pcDNA 3.1/Zeo mammalian expression vector (nucleic acid, listed as Mus musculus)
# DNA: GAATTCGGCACGAGCTTCAGGAAAAGACTTTTCCCCCCACTCCCCCTCCTCTCTGCGAGGTTCCACCCTCTGGAAAACACAACTTTCCCTCTTTTTCTGGAGGGACAGGCCTTAGTGTGGCTGAGAGAGGAAGAACAGTGGGTCAGAGAGTGGTTACGTCACTGTGGCCTTTTTGGAACAAGACACACTGGTGGCATCGCTGTCCTGCCTGTTAGCTTTCCTTGGCCTTTGGGGGCGGAGGAGGGGACACTGCGGACACCCACAGCCTCTGACCCTGCTGGAGCTGGTATGTGACGAGCAGCCCTCGGGCCATGTATTGGAAGAGCGATCAGATGTTTGTGTGTAAGCTGGAGGGAAAGGAGATGCCGGAGCTGGCGGTTCCCCGCGAGATGTGCCCCGGGCTCATGTCGGAGGAGTGCGGGCGGCCTGCAGCTGGCGCCGGGAGGACCCGCAAAGGCTCTGGGGAAGAAGGACTGGTGAATCCCGAGGGAGCCGGGGACGAGGACTCCTGCTCCTCCTCGGGCCCGCTTTCCCCGTCGTCCTCGCCCCAGTCCATGGCCTCGGGTCCGATGTGCCCGCCAGGCAAGTGTGTGTGCAGCAGCTGCGGCCTGGAGATTGTGGACAAATACCTCCTCAAGGTGAATGACTTATGCTGGCATGTCCGCTGTCTCTCCTGCAGTGTCTGCAGAACGTCCCTGGGAAGGCACACGAGCTGCTACATTAAGGATAAAGATATTTTCTGTAAACTCGATTACTTCAGACGGTATGGGACCCGCTGTTCCCGCTGTGGCAGGCACATCCACTCGACTGACTGGGTCCGCAGGGCAAAGGGCAACGTGTATCACCTGGCCTGCTTTGCCTGCTTTTCTTGCAAGAGGCAGCTGTCCACGGGAGAGGAGTTCGCCTTGGTGGAGGAGAAGGTCCTCTGTAGAGTGCACTTTGACTGCATGCTGGACAATCTGAAGAGAGAAGTGGAGAACGGTAATGGGATTAGTGTGGAAGGAGCCCTTCTCACAGAGCAAGACGTCAATCATCCAAAGCCAGCCAAAAGAGCTCGGACCAGCTTCACAGCCGATCAGCTCCAGGTTATGCAAGCACAGTTCGCTCAGGACAACAACCCAGATGCACAGACCCTCCAGAAACTGGCAGAAAGGACAGGCTTAAGCAGACGTGTCATACAGGTGTGGTTTCAGAACTGCAGGGCCCGCCATAAGAAACACGTCAGCCCAAACCATTCTTCCTCGGCCCCCGTCACAGCTGTCCCCTCCTCCAGGCTGTCCCCACCCATCTTGGAAGAAATGGCTTATTCTGCCTACGACCCCCAGGATGACGGGATGCTGACTGCGCACTCATACTTGGATGCTCACCAACAACTCCTGGACTCCAGCCCTTGTTACCCCATCCAATGACCCAGCTGCCAATAAGTCATACCTAATTCCTTCTTTCAGGGATAGAAATGATTGAGGTTATAAACTTGTCATTTTATTATGTATAAAAATA
# What was measured:
# LA-N-2 cells = assay: Retinoic acid treatment of LA-N-2 human neuroblastoma cells; type: cell-based; settings: final concentration 10^−6M
# Procedure: LA-N-2 cells were obtained from Dr. Jan Blusztajn (Boston University, MA). The cells were cultured in Leibovitz L-15 medium (Gibco, BRL, Burlington, ON) containing 10% fetal calf serum and antibiotic-antimyotic mixture (Gibco) in a humidified incubator at 37° C. without CO2. The medium was replaced every 3 days. For treatment with retinoic acid (RA), the cells were sub-plated at a density of 0.5-1×10^6 cells/plate using 0.25% trypsin/1 mM EDTA (Gibco, BRL) and allowed to attach overnight. A fresh stock of 4 mM all-trans retinoic acid RA (Sigma, St. Louis, Mo.) was prepared in 100% ethanol under amber lighting. […] The media was changed every 48 h during the differentiation of the cells, which was complete after 7-14 days.
# Following fixation, HNSCs were briefly washed 3×5 min in Phosphate buffered saline (PBS), then blocked with 3% normal donkey serum in PBS containing 0.05% Tween 20 (PBS-T) and incubated with goat IgG polyclonal anti-human ChAT (1:500, Chemicon), mouseIgG2b monoclonal anti-human βIII-tubulin (1:1000, Sigma) or rabbit anti-human […] (GFAP) (1:1000, Sigma) overnight at 4° C. The corresponding secondary antibodies (donkey anti-goat, donkey anti-mouse, and donkey anti-rabbit, respectively) conjugated to rhodamine or FITC (Jackson IR Laboratories, Inc.) were added for a 2 hr incubation at RT in the dark. […]
# [1] = tested on: Human Neural Stem Cells (HNSCs); assay: Differentiation of Hath1-transfected HNSCs (calretinin immunocytochemistry, Western blot, electron microscopy); type: cell-based
# Procedure: An established a non-serum HNSC culture system was utilized to investigate the differentiation of human neural stem cells (HNSCs) within a defined condition. (Christopher L. Brannen and Kiminobu Sugaya, Regeneration and Transplantation, 11:5, 1123-1128 (2000)). The serum-free supplemented growth medium consisted of HAMS-F12 (Gibco, BRL, Burlington, ON), antibiotic/antimycotic mixture (1:100, Gibco), B27 (1:50, Gibco), human recombinant FGF-2 and EGF (20 ng/ml each, R and D Systems, Minneapolis, Minn.), and heparin (5 ug/ml, Sigma, St. Louis, Mo.). Cells were maintained in 20 ml of this medium at 37° C. in a 5% CO2 humidified incubation chamber.
# The mammalian expression vector containing Hath1 gene was transfected into HNSCs by using the Neuroporter Kit (Gene Therapy Systems, Inc. San Diego, Calif.) and Hath 1 gene expression was confirmed by RT-PCR. These Hath1-transfected HNSCs were differentiated for 7 days by the depletion of mitotic factors (FGF-2, EGF) from the culture media. After the differentiation the cells were fixed for immunocytochemistry and Electron Microscopy.
# The gene expression of Hath1 is assessed by RT-PCR with the following condition: 95° C. (60″), 56° C. (60″), 72° C. (60″) for 35 cycles, with an initial denaturation of 95° C. (5′) and final elongation of 72° C. (15′). The Hath1 gene is transfected into Human Neural Stem Cells (HNSCs) using the Neuroporter Kit. The Neuroporter kit utilizes a lipid-based transfection system for the use with cultured primary neurons, neuronal cell lines, and glial cells. DNA and Neuroporter are used in a ratio of 10 μg DNA/75 μl Neuroporter, utilizing 37.5 μl per well in a 6-well plate and with total volumes of 1.5 mL growth media per well. […]
# Following PBST washing, the cells are incubated with secondary antibody biotinylated anti-rabbit made in goat in PBS containing 0.05% Triton-X100 (PBST), with a dilution factor of 1:200. […] The cells are washed with water, ethanol, and xylene, coverslipped with permount, and ready for viewing with microscopy. […]
# HNSCs [2] = assay: Co-culture of HNSCs transfected with human Lhx8 gene with RA-treated LA-N-2 cells; type: cell-based; settings: co-culture with RA-treated LA-N-2 cells
# Procedure: Using the same vector formation and transfection methods as in Example 2, the Human Lxh8 gene (SEQ ID NO: 6) is transfected into HNSCs. Transfected NHSC cells are cultured in a first treatment that includes LA-N-2 cells that are treated with RA and that express both Lhx8 and ChAT. A co-culture control comprises NHSCs that are not transfected but that are in the same culture vessel as LA-N-2 that are treated with RA and that express both Lhx8 and ChAT. For the first treatment and the co-culture control, HNSC cells are placed in cell culture inserts with an appropriate pore size and suspended in basal media (in the absence of FGF-2 and EGF and without the addition of other extrinsic differentiation factors) over differentiated LA-N-2 cells plated in 6-well plates.
# Immunochemistry follows the same procedure as in Example 2 above.
# HNSCs [3] = assay: Co-culture of Lhx8-transfected HNSCs with RA-treated LA-N-2 cells, immunocytochemistry; type: cell-based, human
# Procedure: HNSCs culture: Human NSCs were originally purchased from BioWhittaker, Walkersville, Md. These cells have been expanded and passaged in a serum-free culture medium containing bFGF and EGF in our laboratory for over three years (Brannen & Sugaya, 2000). The HNSCs were cultured at a density of 50 spheres in 75 cm^2 culture flasks (Corning, Cambridge, Mass.) in 20 ml of a serum-free supplemented growth medium consisting of HAMS-F12 (Gibco, BRL, Burlington, ON), antibiotic-antimycotic mixture (1:100, Gibco), B27 (1:50, Gibco), human recombinant FGF-2 and EGF (20 ng/ml each, R&D Systems, Minneapolis, Minn.) and heparin (5 μg/ml, Sigma, St. Louis, Mo.) incubated at 37° C. in a 5% CO^2 humidified incubation chamber (Fisher, Pittsburgh, Pa.). To facilitate optimal growth conditions, HNSCs were sectioned into quarters every 2 weeks and fed by replacing 50% of the medium every 4-5 days.
# HNSCs were placed in 6-well poly-lysine coated plates and transfected with 4 μg pcDNA 3.1/Lhx8 plasmid using the Neuroporter transfection system (Gene Therapy Systems, see description in Example 1). Upon the insertion of the Lhx8 gene expressible sequence into the directional cloning vector, the expressible sequence was operatively linked to the CMV promoter, and was also positioned upstream (with regard to reading) of a polyadenylation transcription termination site. Lhx8 expression was confirmed after 48 hrs by RT-PCR using primers designed from the gene cDNA sequence; 5′[…]′ 3 (SEQ ID NO: 12, upper primer) and 5′[…]′3 (SEQ ID NO: 13, lower primer). To initiate differentiation, HNSCs were placed in serum-free basal medium, and allowed to differentiate for 10-15 days in culture.
# HNSCs (˜5×10^4) transfected with pcDNA 3.1/Lhx8 and non-transfected HNSCs (controls) were transferred into cell culture inserts with an appropriate pore size and suspended in basal media (in the absence of FGF-2 and EGF and without the addition of other extrinsic differentiation factors) over differentiated LA-N-2 cells plated in 6-well plates. […]
molecule,measurement,setting,value
"CC1=C(/C=C/C(C)=C/C=C/C(C)=C/C(=O)O)C(C)(C)CCC1 [RA, all-trans retinoic acid]",Lhx8 and ChAT gene expression by RT-PCR compared with non-treated cells,LA-N-2 cells; RA,increased expression
same,marker expression in LA-N-2 cells (immunostaining),"LA-N-2 cells; RA-containing media, 7-14 days","expressed Lhx8, βIII-tubulin, and ChAT"
"Hath1: Hath1 gene amplified from BAC clone RP11-680J17, cloned into mammalian expression vector pcDNAHismax TOPO TA under CMV promoter",cell morphology by electron microscopy,[1]; transfected HNSCs after differentiation,typical IEHC morphology; also recorded: distinct hair-like projections
same,calretinin expression by Western blot,[1]; transfected HNSCs differentiated for 7 days,single band specific to calretinin molecular weight
same,calretinin (hair cell marker) expression by immunocytochemistry,"[1]; transfected HNSCs differentiated for 7 days without FGF-2, EGF",existence of cells expressing calretinin
Human Lxh8 gene: Human Lxh8 gene (SEQ ID NO: 6) transfected into HNSCs with the vector and methods of Example 2,"differentiated cell type (βIII-tubulin, ChAT staining)",HNSCs [2],positive for βIII-tubulin and ChAT
B1,"differentiated cell type (βIII-tubulin, ChAT staining)","HNSCs [3]; co-culture with LA-N-2 cholinergic cells, serum-free, 10-20 days",differentiated into mainly βIII-tubulin and ChAT-positive cells; also recorded: differentiated mostly neurons with long extended processes
same,percentage of transfected cells with characteristics of cholinergic neurons,"HNSCs [3]; one trial, end of trial",over 40%
same,"number of cells differentiating to cells having characteristics of cholinergic cells, versus non-transfected HNSCs",HNSCs [3]; transfected HNSCs cultured without differentiated LA-N-2 cells,no significant difference
